Data set [1] can be described thus: In vivo toxicity study. To be noted: 2.5 mg/kg every other day for 12 days, HCT116 xenograft mice; PMI-Au SNH intraperitoneally, intravenously or intragastrically. Here is the method:
To evaluate the toxicity of PMI-Au SNH including the nephrotoxicity in vivo, we carried out a comprehensive toxicity study using the subcutaneous xenograft model of HCT116 tumors from efficacy studies. PMI-Au SNH was intraperitoneally, intravenously or intragastrically injected, every other day for a duration of 12 days, at a dose of 2.5 mg/kg, with saline, ^ctrlPMI-Au SNH and DOX as controls. […] The safety of both PMI-Au SNH and ^ctrlPMI-Au SNH and toxicity of DOX were further confirmed by changes, or lack thereof, in the function of the liver and kidney (Figure 9A-G), in the weight and H&E staining of spleen (Figure 9H-I) and in the number of white blood cells and thrombocytes (Figure S11). Moreover, heart function (Figure S12), the level of red blood cells (Figure S13) and the histological H&E staining of lung (Figure S14) supported the above findings and the conclusion that PMI-Au SNH is sufficiently safe with a significant therapeutic potential. […]
intense staining. […]
To assess potential toxicities of repeatedly infusing PMI-Au SNH, we monitored body weight of all mice over the course of treatment and measured hematological indexes as well as organ function indexes after 13- day treatment. […]

The test system of data set [2] is chymotrypsin. Kind of data set: Proteolysis resistance to chymotrypsin by HPLC. To be noted: chymotrypsin with 10% serum in PBS, PBS containing 10 mM oxidized glutathione, 0.5 mg/ml chymotrypsin, read-out: t1/2 of proteolysis (converted). It counts as in vitro ADME. As for the experimental part:
Figure 3 The colloidal peptide-auric SNH is stable and proteolytically resistant. (A) The physicochemical properties of the three peptide and the schematic diagram of three peptide-Auric SNH. (B-D) The dimensional change of Pep-AuNPs and Pep-Au SNH with time in PBS (pH7.4) or PBS including 20% FBS and 50 µM GSH to simulate extracellular physiological environment. (E-G) Proteolysis resistance of Pep-SH, Pep-AuNPs and Pep-Au SNH under PBS containing 10 mM oxidized glutathione, 10% serum, and 0.5 mg/ml chymotrypsin.
Linear peptides are conformationally disordered in aqueous solutions under their own steam and, consequently, tendentious to proteolysis. Conjugation of peptides with nanoparticles would improve steric hindrance against peptidase, resulting in the resistance to proteolysis, [44]. We comparatively quantified the susceptibility of Pep-AuNPs and Pep-Au SNH to chymotrypsin using HPLC (Figure 3E-G).
Fi g u re S 9. (A) The dimensional change of PMI- Au SNH with time in PBS or PBS including 20%
FBS and 50μM GSH at pH 7.4 or 4.0 to simulate extracellular physiological environment. ( B)
Proteolysis resistance of Pep-Au SNH under PBS at pH 7.4 or 4.0 containing 10 mM oxidized
glutathione, 10% serum, and 0.5 mg/ml chymotrypsin. (C) ICP- MS quantification of gold content
(from PMI- Au SNH) in stomach, colon and blood collected from health c57/b6 mice. The data […]

Each structure is given as a SMILES string.

Regarding `COc1cccc2c1C(=O)c1c(O)c3c(c(O)c1C2=O)C[C@@](O)(C(=O)CO)C[C@@H]3O[C@H]1C[C@H](N)[C@H](O)[C@H](C)O1` [DOX, doxorubicin], in data set [1], the body weight change result is “significant loss of body weight”.
With `CC(=O)N[C@H](C(=O)N[C@@H](CO)C(=O)N[C@@H](Cc1ccccc1)C(=O)N[C@@H](C)C(=O)N[C@@H](CCC(=O)O)C(=O)N[C@@H](Cc1ccc(O)cc1)C(=O)N[C@@H](Cc1c[nH]c2ccccc12)C(=O)N[C@@H](C)C(=O)N[C@@H](CC(C)C)C(=O)N[C@@H](CC(C)C)C(=O)N[C@@H](CO)C(=O)N1CCC[C@H]1C(=O)N[C@@H](CS)C(=O)O)[C@@H](C)O` [PMI-SH], the half-life in data set [2] was 9 ± 0.6 min.

These data come from PMC7392018, “A general-purpose Nanohybrid fabricated by Polymeric Au(I)-peptide precursor to wake the function of Peptide Therapeutics” (Theranostics, 2020).
